Measured values taken from paper PMC4706532, “Diarylthiophenes as inhibitors of the pore-forming protein perforin” (Bioorganic & Medicinal Chemistry Letters, 2016).
Values after ≈ are worked out from the molar mass of the structure shown.

Experiments:
perforin = test system: perforin; parameters: method as in earlier work; settings: compound concentration 100 µM; cited from earlier work
recombinant perforin = biological target: T1, recombinant perforin (Mus musculus, UniProt P10820); parameters: method as in PMID 22244072; settings: 2 vs HTS hit 1; cited from earlier work
T1 sequence (P10820 21-554): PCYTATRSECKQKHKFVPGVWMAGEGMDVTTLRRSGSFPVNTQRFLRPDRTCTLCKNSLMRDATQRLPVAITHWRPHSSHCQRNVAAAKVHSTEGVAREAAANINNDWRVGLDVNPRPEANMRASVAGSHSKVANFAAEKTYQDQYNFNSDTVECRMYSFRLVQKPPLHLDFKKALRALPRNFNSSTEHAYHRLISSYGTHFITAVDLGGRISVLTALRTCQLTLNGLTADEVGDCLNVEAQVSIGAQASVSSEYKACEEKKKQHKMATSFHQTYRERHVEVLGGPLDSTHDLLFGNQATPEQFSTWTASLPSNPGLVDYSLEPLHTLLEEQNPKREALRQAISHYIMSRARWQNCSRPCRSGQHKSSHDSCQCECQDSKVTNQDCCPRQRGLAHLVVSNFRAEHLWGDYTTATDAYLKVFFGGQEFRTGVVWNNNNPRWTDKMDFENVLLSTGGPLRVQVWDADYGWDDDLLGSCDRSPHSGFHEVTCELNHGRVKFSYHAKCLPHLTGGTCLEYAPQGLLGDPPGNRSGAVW

[1] = test system: perforin delivered by KHYG-1 NK cells; experiment: KHYG-1 cytotoxicity assay: lysis of K562 target cells by KHYG-1 NK cells (51Cr release); assay type: cell-based, human; settings: for inhibition at 20 µM: Homo sapiens, KHYG-1 NK, read-out: KHYG-1 inhibition (% at 20 μM), compound 20 μM; for Activity against perforin delivered by whole KHYG-1 NK cells (in words): whole human NK cells, K562 targets
Description: (§1) The compounds were then evaluated for their ability to block the effect of perforin delivered by whole KHYG-1 NK cells (Table 2). Employing whole NK cells is a more rigorous model of conditions in vivo than the use of isolated recombinant protein since effector cell identification of the labelled target cell and formation of an immune synapse are required for perforin release. […] After co-incubation of inhibitor with KHYG-1 NK cells in medium for 30 min at room temperature, ^51Cr-labelled K562 leukaemia target cells were added and cell lysis evaluated after 4 h incubation at 37 °C by measuring ^51Cr release. […] Viable and dead cells were counted and percent viability calculated based on total cell count (for further details see Supplementary data). […] For the purposes of this work, compounds are classified as toxic if NK cell viability falls below 70%. This is due to the importance of CTLs and NK cells in the overall immunological response which means that it is essential that any pharmacological intervention allows rapid recovery of these cytotoxic effector cells for normal immunological function.
KHYG-1 cells were washed and re-suspended in RPMI + 0.1% BSA at 4 × 10^5 cells/mL, and an amount of 50 μL of KHYG-1 cells was dispensed to each well of a 96-well V-bottom plate. RPMI (50 μL) + 0.1% BSA or 10% (final concentration) of serum was added to each well. Then test compounds were added to KHYG-1 cells at various concentrations up to 20 μM and incubated at room temperature for […]. 1 × 10^6 K562 target cells were labelled with 75 μCi ^51Cr in 200 μL of RPMI for 90 min at 37 °C. Cells were washed as described above and re-suspended in 5 mL of RPMI + 0.1% BSA. An amount of 50 μL of ^51Cr labelled K562 leukaemia target cells was added to each well of the KHYG-1 plate (effector/target 2:1) and incubated at 37 °C for 4 h. ^51Cr release was assayed using a Skatron harvesting press and radioactivity estimated on a Wallac Wizard 1470 automatic γ counter (Turku, Finland). The percentage of specific cytotoxicity was calculated using the following formula:
% specific lysis = […]
(maximum release - spontaneous release)
and expressed as the mean of triplicate assays ± standard error of the mean.

[2] = Toxicity to KHYG-1 NK cells (Trypan blue exclusion); settings: human
Description: as §1
The toxicity assay was carried out in exactly the same manner as the killing assay above, but instead of adding the labelled K562 target cells, 100 μL of RPMI 0.1% BSA was added. Cells were incubated for 4 h at 37 °C and then washed ×3 in RPMI + 0.1% BSA. Cells were then re-suspended in 200 μL of complete medium and incubated for 18−24 h at 37 °C. Trypan blue was added to each well. Viable (clear) cells and total (clear + blue) cells were counted, and the percentage of viable cells was calculated compared to DMSO treated cell control (% viability).

[3] = Plasma stability, mouse plasma; assay type: in vitro ADME; settings: % parent remaining at 24 h, 37 °C
Description: (§2) Preliminary stability studies were carried out by incubation in human or mouse plasma at 37 °C with the percentage parent remaining measured at 24 h (Table 2). […] In mouse plasma the ratio of open to closed is 50:50%, while in human plasma this shifts to 90:10 due to the strong affinity of human serum albumin for the ring-opened form.[20] It is likely that the same phenomenon is operating in the present case and while not necessarily an issue for mouse studies, will need to be addressed in future work.
(§3) Incubation method - Mouse (CD-1, male) and human (pooled) plasma pH was adjusted to 7.4 with either 1M phosphoric acid or sodium hydroxide. Plasma was spiked with 100 uM of test compounds and divided into two parts; one part was immediately transferred to -80 °C (control), and the second part was incubated at 37 °C at 24 h.
(§4) At the end of the study duration, samples were transferred to -80 °C until ready to analyse by HPLC-DAD. On the day of analysis, control and incubated samples were thawed on wet ice and mixed.
(§5) Sample treatment for HPLC - 20 uL of samples were mixed with 80 uL (1:4 v/v) ice cold acetonitrile to precipitate the plasma proteins, centrifuged at 13,000 rpm for 5 min to obtain the clear supernatant. The supernatant was diluted with 0.01% formic acid– water (1:2 v/v) and 50 uL was injected onto the HPLC system (Agilent).
(§6) Calculation: The % loss was calculated based on peak area using the following formula: (peak area time “0”- peak area time “24h”)/peak area time “0” multiplied by 100. % Remaining = 100 - % loss.

[4] = Plasma stability, human plasma; assay type: in vitro ADME; settings: % parent remaining at 24 h, 37 °C
Description: as §2, §3, §4, §5, §6

Solubility in water = settings: water
[5] = perforin-induced lysis of K562 target cells co-incubated with KHYG-1 human NK cells, vs untreated control

SMILES	Inhibition of perforin-mediated lysis of SRBC (in words) (perforin)	Fold improvement in inhibition of isolated perforin protein function over 1 (recombinant perforin) [fold]	inhibition at 20 µM [1, 5] [%]	KHYG-1 inhibition (% at 20 μM) ([1]; compound 20 μM, perforin-induced lysis of K562 target cells co-incubated with KHYG-1 human NK cells, vs untreated control, 20 µM) [%]	Activity against perforin delivered by whole KHYG-1 NK cells (in words) [1]	viability at 24 h, 20 µM [2] [%]	Plasma stability (% at 24 h) Mouse [3] [%]	Plasma stability (% at 24 h) Human [4] [%]	solubility (Solubility in water) [µg/mL]
O=C1NC(=S)N/C1=C/c1ccc(-c2ccc3c(c2)COC3=O)o1 [Compound 1]	reproducibly inhibit								
O=C1NC(=S)N/C1=C/c1ccc(-c2ccc3c(c2)COC3=O)s1 [Compound 2]		~8							
NC(=O)c1ccc(-c2ccc(-c3ccc4c(c3)COC4=O)s2)cc1 [Compound 23]			60	63	excellent activity	90	75	46	
NC(=O)c1ccc(-c2ccc(-c3ccc4c(c3)COC4=O)s2)cc1O [Compound 48]			20		poor or no activity	92	75	49	0.023 (≈ 0.0655 µM)
O=C1OCc2cc(-c3ccc(-c4ccc(CO)cc4)s3)ccc21 [Compound 59]			13		poor or no activity	79	87	73	
NC(=O)c1ccc(-c2ccc(-c3ccc4c(c3)COC4=O)s2)cn1 [Compound 67]			80		excellent activity	82	66	39	0.204 (≈ 0.606 µM)
